Assay [1] deals with T1, Glucagon receptor (Homo sapiens, UniProt P47871). Description: Antagonist activity at human GCGR expressed in CHO cells assessed as inhibition of glucagon-stimulated cAMP production preincubated for 30 mins followed by glucagon induction measured after 45 mins by LANCE assay. It counts as functional, cell-based. (Changes in cAMP serve as a functional read-out for many G protein-coupled receptors.)

Assay [2] concerns the target T2, Glucagon-like peptide 1 receptor (Homo sapiens, UniProt P43220). Particulars: CHO, at 10 µM.
Description: Antagonist activity at human GLP-1R expressed in CHO cells assessed as inhibition of GLP-1-stimulated cAMP production at 10 uM preincubated for 30 mins followed by GLP-1 induction measured after 45 mins by LANCE assay relative to control
For assay [3], the target named is T1, Glucagon receptor. Description: biochemical. The format is cell-based, CHO.
Description: Displacement of [125I]-glucagon from recombinant human GCGR expressed in CHO cells after 60 mins by scintillation counting analysis
The target of assay [4] is Glucagon receptor (Mus musculus, UniProt Q61606). It counts as cell membranes, Liver, Membrane.
Sequence of Glucagon receptor (Mus musculus, UniProt Q61606) (Q61606 whole entry): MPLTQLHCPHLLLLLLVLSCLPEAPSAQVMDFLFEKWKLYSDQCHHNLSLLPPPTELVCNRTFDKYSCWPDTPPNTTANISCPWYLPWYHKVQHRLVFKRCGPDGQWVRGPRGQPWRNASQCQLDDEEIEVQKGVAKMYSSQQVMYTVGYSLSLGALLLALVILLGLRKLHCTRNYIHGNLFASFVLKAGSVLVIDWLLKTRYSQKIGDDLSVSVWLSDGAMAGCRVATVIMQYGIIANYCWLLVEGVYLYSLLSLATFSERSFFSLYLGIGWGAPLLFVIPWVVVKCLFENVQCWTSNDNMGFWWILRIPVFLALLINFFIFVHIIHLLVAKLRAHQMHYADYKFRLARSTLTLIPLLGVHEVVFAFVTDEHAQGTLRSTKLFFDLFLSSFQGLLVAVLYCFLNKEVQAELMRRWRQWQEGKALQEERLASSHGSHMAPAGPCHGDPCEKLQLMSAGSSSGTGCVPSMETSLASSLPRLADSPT
Description: Displacement of [125I]-glucagon from GCGR in mouse liver membranes after 60 mins by scintillation counting analysis
Assay [5] deals with T2, Glucagon-like peptide 1 receptor. Description: Antagonist activity at human GLP-1R expressed in CHO cells assessed as inhibition of GLP-1-stimulated cAMP production preincubated for 30 mins followed by GLP-1 induction measured after 45 mins by LANCE assay. It counts as functional, cell-based.

pIC50: −log10 of the molar value. Where only a bound is given, the exact number is not on record here.

By pIC50 is commonly meant the IC50 on a negative log10 scale, so that one unit is a factor of ten. What is called inhibition is the share of the control response that was lost under treatment. Read a high inhibition as a response far below the control.

T2 sequence (P43220 whole entry): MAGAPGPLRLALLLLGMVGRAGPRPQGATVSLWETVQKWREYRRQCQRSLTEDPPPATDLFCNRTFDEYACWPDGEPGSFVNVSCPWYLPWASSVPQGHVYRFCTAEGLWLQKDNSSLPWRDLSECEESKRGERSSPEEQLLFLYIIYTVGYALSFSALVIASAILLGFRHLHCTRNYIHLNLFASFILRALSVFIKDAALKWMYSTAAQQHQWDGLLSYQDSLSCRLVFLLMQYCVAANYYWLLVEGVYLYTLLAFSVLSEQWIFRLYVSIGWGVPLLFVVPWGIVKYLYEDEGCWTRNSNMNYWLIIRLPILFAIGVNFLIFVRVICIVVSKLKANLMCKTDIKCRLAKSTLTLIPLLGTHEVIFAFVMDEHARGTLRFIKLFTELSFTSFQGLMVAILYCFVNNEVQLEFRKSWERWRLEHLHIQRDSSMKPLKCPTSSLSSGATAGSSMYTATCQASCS
T1 sequence (P47871 whole entry): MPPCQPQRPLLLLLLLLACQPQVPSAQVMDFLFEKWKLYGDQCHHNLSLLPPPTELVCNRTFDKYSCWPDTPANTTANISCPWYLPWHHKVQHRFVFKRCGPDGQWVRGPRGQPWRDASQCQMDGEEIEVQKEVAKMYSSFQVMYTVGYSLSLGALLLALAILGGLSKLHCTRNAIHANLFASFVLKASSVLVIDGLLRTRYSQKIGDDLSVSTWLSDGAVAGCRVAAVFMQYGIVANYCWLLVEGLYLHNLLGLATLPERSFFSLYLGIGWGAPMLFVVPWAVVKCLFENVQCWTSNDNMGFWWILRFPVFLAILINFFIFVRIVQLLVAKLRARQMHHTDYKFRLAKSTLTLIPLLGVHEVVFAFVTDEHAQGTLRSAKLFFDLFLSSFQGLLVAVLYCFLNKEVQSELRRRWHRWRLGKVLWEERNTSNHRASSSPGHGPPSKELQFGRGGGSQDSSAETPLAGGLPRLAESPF

For the compound `CC(C)(C)[C@H]1CC[C@]2(CC1)N=C(c1ccc(Cl)c(Cl)c1)C(=O)N2Cc1ccc(C(=O)NCCC(=O)O)cc1`, the pIC50 on Glucagon receptor [1] was 5.80. Also, in assay [2], the inhibition was < 50%.
For `CC(C)(C)[C@H]1CC[C@]2(CC1)N=C(c1ccc(OC(F)(F)F)cc1)C(=O)N2Cc1ccc(C(=O)NCCC(=O)O)cc1`, in that order: 5.72 and < 50%.
Take `CCC[C@H](c1ccc(C(=O)NCc2nn[nH]n2)cc1)N1C(=O)C(c2cc(Cl)cc(Cl)c2)=N[C@]12CC[C@@H](C(C)(C)C)CC2`: the pIC50 was 6.66 at Glucagon receptor [1], 7.26 at Glucagon receptor [3], 6.30 at Glucagon receptor [4] and < 5.00 in assay [5].
Turning to `CC(C)(C)CC[C@H](c1ccc(C(=O)NCc2nn[nH]n2)cc1)N1C(=O)C(c2cnccc2C(F)(F)F)=N[C@]12CC[C@@H](C(C)(C)C)CC2`, the pIC50 was 5.92 at Glucagon receptor [1], 7.66 against Glucagon receptor [3], 7.02 against Glucagon receptor [4] and < 5.00 in assay [5].
For `C[C@H](c1ccc(C(=O)NCCC(=O)O)cc1)N1C(=O)C(c2cc(Cl)cc(Cl)c2)=N[C@]12CC[C@@H](C(C)(C)C)CC2`, in that order: 6.85, 7.02, 5.92 and 5.19.
For `Cc1cccc(C2=N[C@]3(CC[C@@H](C(C)(C)C)CC3)N([C@H](C)c3ccc(C(=O)NCCC(=O)O)cc3)C2=O)c1`, in that order: 6.31, 6.82, 5.77 and < 5.00.
For `C[C@H](CC(=O)O)NC(=O)c1ccc([C@@H](CCC(C)(C)C)N2C(=O)C(c3cc(Cl)cc(Cl)c3)=N[C@]23CC[C@@H](C(C)(C)C)CC3)cc1`, in that order: 6.28, 6.92, 5.21 and < 5.00.
Turning to `CC(C)(C)[C@H]1CC[C@]2(CC1)N=C(c1ccc(Cl)cc1)C(=O)N2Cc1ccc(C(=O)NCCC(=O)O)cc1`, the pIC50 was 5.85 at Glucagon receptor [1], 6.03 on Glucagon receptor [3] and < 5.00 against Glucagon receptor [4]. The inhibition in assay [2] was < 50%.
For `C[C@H](c1ccc(C(=O)NCCC(=O)O)cc1)N1C(=O)C(c2cccc(Cl)c2F)=N[C@]12CC[C@@H](C(C)(C)C)CC2`, the pIC50 at Glucagon receptor [1] is 6.20; on Glucagon receptor [3], 6.21; at Glucagon receptor [4], 5.40; in assay [5] it was < 5.00.
For `C[C@H](c1ccc(C(=O)NCCC(=O)O)cc1)N1C(=O)C(c2cccc(C3CC3)c2)=N[C@]12CC[C@@H](C(C)(C)C)CC2`, in that order: 6.47, 7.25, 5.77 and < 5.00.
The corresponding values for `CC(C)(C)CC[C@H](c1ccc(C(=O)NCc2nn[nH]n2)cc1)N1C(=O)C(c2ccc(F)cc2)=N[C@]12CC[C@@H](C(C)(C)C)CC2` are 6.62, 7.89, 7.05 and < 5.00.
The corresponding values for `C[C@H](c1ccc(C(=O)NC[C@@H](O)C(=O)O)cc1)N1C(=O)C(c2cc(Cl)cc(Cl)c2)=N[C@]12CC[C@@H](C(C)(C)C)CC2` are < 5.00, 6.72, 5.96 and < 5.00.
Take `CC(C)(C)CC[C@H](c1ccc(C(=O)NCc2nn[nH]n2)cc1)N1C(=O)C(c2cccc(Cl)c2)=N[C@]12CC[C@@H](C(C)(C)C)CC2`: the pIC50 at Glucagon receptor [1] is 6.89; at Glucagon receptor [3], 7.85; against Glucagon receptor [4] it was 6.89; in assay [5], < 5.00.
For the compound `C[C@H](c1ccc(C(=O)NC[C@H](O)C(=O)O)cc1)N1C(=O)C(c2cc(Cl)cc(Cl)c2)=N[C@]12CC[C@@H](C(C)(C)C)CC2`, the pIC50 on Glucagon receptor [1] was < 5.00; at Glucagon receptor [3], 6.80; on Glucagon receptor [4] it was 5.82; in assay [5], < 5.00.
Regarding `C[C@H](c1ccc(C(=O)NCCC(=O)O)cc1)N1C(=O)C(c2ccc(Cl)c(Cl)c2)=N[C@]12CC[C@@H](C(C)(C)C)CC2`, the pIC50 was 6.26 at Glucagon receptor [1], 7.02 on Glucagon receptor [3], 5.49 against Glucagon receptor [4] and 5.36 in assay [5].
The corresponding values for `C[C@H](c1ccc(C(=O)NCCC(=O)O)cc1)N1C(=O)C(c2ccccc2F)=N[C@]12CC[C@@H](C(C)(C)C)CC2` are 6.46, 5.96, < 5.00 and < 5.00.
With `CC(C)(C)[C@H]1CC[C@]2(CC1)N=C(c1ccccc1Cl)C(=O)N2Cc1ccc(C(=O)NCCC(=O)O)cc1`, the pIC50 on Glucagon receptor [1] was 5.17. Moreover, in assay [2], the inhibition is < 50%.
With `CC(C)(C)[C@H]1CC[C@]2(CC1)N=C(c1cccc(C(F)(F)F)c1)C(=O)N2Cc1ccc(C(=O)NCCC(=O)O)cc1`, the pIC50 on Glucagon receptor [1] is 6.29; on Glucagon receptor [4], 5.00. In addition, in assay [2], the inhibition was < 50%.
In the case of `CCCC[C@H](c1ccc(C(=O)NCc2nn[nH]n2)cc1)N1C(=O)C(c2cc(Cl)cc(Cl)c2)=N[C@]12CC[C@@H](C(C)(C)C)CC2`, the pIC50 on Glucagon receptor [1] is 6.42; against Glucagon receptor [3], 7.64; against Glucagon receptor [4], 6.38; in assay [5], < 5.00.
The corresponding values for `C[C@H](c1ccc(C(=O)Nc2nnn[nH]2)cc1)N1C(=O)C(c2cc(Cl)cc(Cl)c2)=N[C@]12CC[C@@H](C(C)(C)C)CC2` are 6.12, 6.33, < 5.00 and 6.10.
For `CC(C)(C)[C@H]1CC[C@]2(CC1)N=C(c1cc(Cl)cc(Cl)c1)C(=O)N2[C@H](CCC(F)(F)F)c1ccc(C(=O)NCc2nn[nH]n2)cc1`, in that order: 6.43, 8.40, 6.96 and < 5.00.
The corresponding values for `CC(C)(C)CC[C@H](c1ccc(C(=O)NCc2nn[nH]n2)cc1)N1C(=O)C(c2ccc(F)c(F)c2)=N[C@]12CC[C@@H](C(C)(C)C)CC2` are 6.74, 7.89, 6.77 and < 5.00.
For `C[C@H](c1ccc(C(=O)NCCC(=O)O)cc1)N1C(=O)C(c2cc(Cl)ccc2F)=N[C@]12CC[C@@H](C(C)(C)C)CC2`, the pIC50 on Glucagon receptor [1] was 6.12; on Glucagon receptor [3] it was 6.47; against Glucagon receptor [4] it was 5.34; in assay [5] it was < 5.00.
The corresponding values for `C[C@H](c1ccc(C(=O)NCCC(=O)O)cc1)N1C(=O)C(c2cccc(Cl)c2)=N[C@]12CC[C@@H](C(C)(C)C)CC2` are 6.32, 6.89, 5.48 and 5.41.
Regarding `CC(C)(C)[C@H]1CC[C@]2(CC1)N=C(c1ccc(C(F)(F)F)cc1)C(=O)N2Cc1ccc(C(=O)NCCC(=O)O)cc1`, the pIC50 was 6.10 on Glucagon receptor [1] and 5.02 against Glucagon receptor [4]. In assay [2], the inhibition is < 50%.
For the compound `C[C@H](c1ccc(C(=O)NCCC(=O)O)cc1)N1C(=O)C(c2ccccc2)=N[C@]12CC[C@@H](C(C)(C)C)CC2`, the negative logarithm of the IC50 (pIC50) at Glucagon receptor [1] is 6.20; against Glucagon receptor [3], 6.44; against Glucagon receptor [4], 5.28; in assay [5], < 5.00.
The corresponding values for `CC(C)C[C@H](c1ccc(C(=O)NCc2nn[nH]n2)cc1)N1C(=O)C(c2cc(Cl)cc(Cl)c2)=N[C@]12CC[C@@H](C(C)(C)C)CC2` are 6.12, 7.82, 6.38 and < 5.00.
With `CC(C)(C)[C@H]1CC[C@]2(CC1)N=C(c1ccc(F)cc1)C(=O)N2Cc1ccc(C(=O)NCCC(=O)O)cc1`, the pIC50 on Glucagon receptor [1] was 5.72. For the same compound, the inhibition in assay [2] was < 50%.
Regarding `CC(Cc1ccc(C(=O)NCCC(=O)O)cc1)N1C(=O)C(c2cc(Cl)cc(Cl)c2)=N[C@]12CC[C@@H](C(C)(C)C)CC2` (some centres not stated), the pIC50 at Glucagon receptor [1] is 6.85; on Glucagon receptor [3] it was 6.72; at Glucagon receptor [4], 5.89; in assay [5], 5.51.
`C[C@H](c1ccc(C(=O)NCCC(=O)O)cc1)N1C(=O)C(c2cc(F)cc(Cl)c2)=N[C@]12CC[C@@H](C(C)(C)C)CC2`: the pIC50 was 6.96 at Glucagon receptor [1], 8.22 at Glucagon receptor [3], 6.09 on Glucagon receptor [4] and 5.25 in assay [5].
For `CC[C@H](c1ccc(C(=O)NCc2nn[nH]n2)cc1)N1C(=O)C(c2cc(Cl)cc(Cl)c2)=N[C@]12CC[C@@H](C(C)(C)C)CC2`, in that order: 6.57, 7.09, 6.43 and < 5.00.
In the case of `CC(C)(C)[C@H]1CC[C@]2(CC1)N=C(c1ccccc1)C(=O)N2Cc1ccc(C(=O)NCCC(=O)O)cc1`, the pIC50 at Glucagon receptor [1] is 5.49. Further, in assay [2], the inhibition was < 50%.
Take `CCCCC[C@H](c1ccc(C(=O)NCc2nn[nH]n2)cc1)N1C(=O)C(c2cc(Cl)cc(Cl)c2)=N[C@]12CC[C@@H](C(C)(C)C)CC2`: the pIC50 at Glucagon receptor [1] is 6.89; against Glucagon receptor [3], 7.62; on Glucagon receptor [4] it was 6.51; in assay [5], < 5.00.
For `CC(C)(C)CC[C@H](c1ccc(C(=O)NCc2nn[nH]n2)cc1)N1C(=O)C(c2cccc(F)c2)=N[C@]12CC[C@@H](C(C)(C)C)CC2`, in that order: 6.85, 7.68, 7.00 and < 5.00.
For the compound `CC1(CC[C@H](c2ccc(C(=O)NCc3nn[nH]n3)cc2)N2C(=O)C(c3cc(Cl)cc(Cl)c3)=N[C@]23CC[C@@H](C(C)(C)C)CC3)CC1`, the pIC50 on Glucagon receptor [1] was 7.00; against Glucagon receptor [3] it was 7.77; against Glucagon receptor [4], 6.96; in assay [5], < 5.00.
For `C[C@H](c1ccc(C(=O)NCCC(=O)O)cc1)N1C(=O)C(c2ccccc2Cl)=N[C@]12CC[C@@H](C(C)(C)C)CC2`, in that order: 5.54, 6.28, 5.27 and < 5.00.

The values are drawn from ChEMBL document CHEMBL3232855, “The discovery of N-((2H-tetrazol-5-yl)methyl)-4-((R)-1-((5r,8R)-8-(tert-butyl)-3-(3,5-dichlorophenyl)-2-oxo-1,4-diazaspiro[4.5]dec-3-en-1-yl)-4,4-dimethylpentyl)benzamide (SCH 900822): a potent and selective glucagon receptor antagonist” (J Med Chem, 2014).
